Read-outs that look alike come from different tables or passages of the source.
Experiments:
Format in all cases: cell-based, human
Target C mRNA = experiment: RT-qPCR splicing assay panel, Target C canonical junction (CJ) mRNA; conditions: Homo sapiens
Procedure, shortened: (§1)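 24 h compound exposure of A673 or K562 cells at 37 °C, 10 uM top final concentration, 3-fold steps, DMSO ≤0.25%. Splice-isoform levels determined by qPCR on cDNA from lysates, run at least in duplicate; values expressed as RQ normalized to GAPDH, GUSB or PPIA and DMSO.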

MYB mRNA = experiment: RT-qPCR splicing assay, MYB canonical (CJ) and alternative (AJ) junction mRNA; conditions: Homo sapiens; for AC50: read-out: MYB AJ (AC50, increase in AJ mRNA)
Procedure, shortened: as §1

HTT mRNA = experiment: RT-qPCR splicing assay, HTT canonical (CJ) and alternative (AJ) junction mRNA; conditions: Homo sapiens; for AC50: read-out: HTT AJ (AC50, increase in AJ mRNA)
Procedure, shortened: as §1

SMN2 mRNA = experiment: RT-qPCR splicing assay panel, SMN2 canonical junction (CJ) mRNA; conditions: Homo sapiens
Procedure, shortened: as §1

[1] = canonical junction (CJ) mRNA, RT-qPCR panel, Table 4A, read-out: Target C, decrease in CJ mRNA levels, IC50
[2] = 24 h, Table 3A, A673 or K562 cells, 24 h treatment
[3] = 24 h, Table 3A, A673 or K562 cells, 24 h treatment, read-out: MYB CJ (IC50, decrease in CJ mRNA)
[4] = canonical junction (CJ) mRNA, RT-qPCR panel, Table 4A, read-out: MYB, decrease in CJ mRNA levels, IC50
[5] = 24 h, Table 3A, A673 or K562 cells, 24 h treatment, read-out: HTT CJ (IC50, decrease in CJ mRNA)
[6] = canonical junction (CJ) mRNA, RT-qPCR panel, Table 4A, read-out: HTT, decrease in CJ mRNA levels, IC50
[7] = canonical junction (CJ) mRNA, RT-qPCR panel, Table 4A, read-out: SMN2, decrease in CJ mRNA levels, IC50
[8] = Table 4B, gene panel, read-out: Target C (IC50, decrease in CJ mRNA levels)
[9] = 24 h, Table 3B, A673 or K562 cells, 24 h treatment
[10] = 24 h, Table 3B, A673 or K562 cells, 24 h treatment, read-out: MYB CJ (IC50, decrease in CJ mRNA)
[11] = Table 4B, gene panel, read-out: MYB (IC50, decrease in CJ mRNA levels)
[12] = 24 h, Table 3B, A673 or K562 cells, 24 h treatment, read-out: HTT CJ (IC50, decrease in CJ mRNA)
[13] = Table 4B, gene panel, read-out: HTT (IC50, decrease in CJ mRNA levels)
[14] = Table 4B, gene panel, read-out: SMN2 (IC50, decrease in CJ mRNA levels)

Row | SMILES | IC50 (Target C mRNA; [1]) | AC50 (MYB mRNA; [2]) | IC50 (MYB mRNA; [3]) | IC50 (MYB mRNA; [4]) | AC50 (HTT mRNA; [2]) | IC50 (HTT mRNA; [5]) | IC50 (HTT mRNA; [6]) | IC50 (SMN2 mRNA; [7]) | IC50 (Target C mRNA; [8]) | AC50 (MYB mRNA; [9]) | IC50 (MYB mRNA; [10]) | IC50 (MYB mRNA; [11]) | AC50 (HTT mRNA; [9]) | IC50 (HTT mRNA; [12]) | IC50 (HTT mRNA; [13]) | IC50 (SMN2 mRNA; [14])
1 | CN(c1ccc(-c2ccc(-c3cn[nH]c3)cc2O)nn1)C1CC(C)(C)NC(C)(C)C1 [Compound 360] | < 100 nM | < 100 nM | < 100 nM | < 100 nM | < 100 nM | < 100 nM | < 100 nM | < 100 nM |  |  |  |  |  |  |  | 
2 | Cc1ncc(-c2cc(O)c(-c3ccc(OC4CC(C)(C)NC(C)(C)C4)nn3)cc2F)s1 [Compound 385] | 100 to 1000 nM | 100 to 1000 nM | 100 to 1000 nM | 100 to 1000 nM | < 100 nM | < 100 nM | < 100 nM | < 100 nM |  |  |  |  |  |  |  | 
3 | Cc1ncc(-c2cc(O)c(-c3ccc(N4CC[C@@](C)(NCC5CC5)C4)nn3)cc2F)s1 (single isomer, unassigned) [Compound 399] | < 100 nM | 100 to 1000 nM | 100 to 1000 nM | 100 to 1000 nM | < 100 nM | < 100 nM | < 100 nM | < 100 nM |  |  |  |  |  |  |  | 
4 | COc1cc(-c2ccc(-c3ccc(N4CC[C@@H](NCC5CC5)C4)nn3)c(O)c2)cnn1 [Compound 288] | 100 to 1000 nM | 100 to 1000 nM | 100 to 1000 nM | 100 to 1000 nM | 100 to 1000 nM | < 100 nM | < 100 nM | < 100 nM |  |  |  |  |  |  |  | 
5 | Cc1nnc(-c2cc(O)c(-c3ccc(N4CC[C@@H](NCC5CC5)C4)nn3)cc2F)s1 [Compound 402] | 1000 to 10000 nM | 1000 to 10000 nM | 1000 to 10000 nM | 1000 to 10000 nM | 100 to 1000 nM | 100 to 1000 nM | 100 to 1000 nM | 100 to 1000 nM |  |  |  |  |  |  |  | 
6 | Cc1ncc(-c2cc(O)c(-c3ccc(N4CC[C@@H](NCC5CC5)C4)nn3)cc2F)s1 [Compound 392] | < 100 nM | < 100 nM | < 100 nM | < 100 nM | < 100 nM | < 100 nM | < 100 nM | < 100 nM |  |  |  |  |  |  |  | 
7 | Cc1nc2cc(O)c(-c3ccc(N4CCC(NC(C)(C)C(C)(C)C)C4)nn3)cc2o1 (stereo not shown) [Compound 835] |  |  |  |  |  |  |  |  | 100 to 1000 nM | 100 to 1000 nM | 100 to 1000 nM | 100 to 1000 nM | 100 to 1000 nM | 100 to 1000 nM | 100 to 1000 nM | 100 to 1000 nM
8 | Cc1ncc(-c2cc(O)c(-c3ccc(N4CCC(CNC(C)(C)C)C4)nn3)cc2F)s1 (stereo not shown) [Compound 333] | > 10000 nM | > 10000 nM | > 10000 nM | > 10000 nM | > 10000 nM | 1000 to 10000 nM | 1000 to 10000 nM | 1000 to 10000 nM |  |  |  |  |  |  |  | 
9 | Cc1ncc(-c2cc(O)c(-c3ccc(N4CC[C@H](NCC5CCC5)C4)nn3)cc2F)s1 [Compound 411] | < 100 nM | 100 to 1000 nM | 1000 to 10000 nM | 1000 to 10000 nM | < 100 nM | < 100 nM | < 100 nM | < 100 nM |  |  |  |  |  |  |  | 
10 | CN(C1CCN(c2ccc(-c3cc(F)c(-c4cn[nH]c4)cc3O)nn2)C1)C(C)(C)C (stereo in doubt) [Compound 119, 2-{6-[(3S)-3-[tert-butyl(methyl)amino]pyrrolidin-1-yl]pyridazin-3-yl}-4-fluoro-5-(1H-pyrazol-4-yl)phenol] | < 100 nM | < 100 nM | < 100 nM | < 100 nM | < 100 nM | < 100 nM | < 100 nM | < 100 nM |  |  |  |  |  |  |  | 
11 | COc1cc(-c2ccc(-c3ccc(N4CC[C@H](NC(C)(C)C)C4)nn3)c(O)c2)cnn1 [Compound 210, 2-{6-[(3S)-3-(tert-butylamino)pyrrolidin-1-yl]pyridazin-3-yl}-5-(6-methoxypyridazin-4-yl)phenol] | < 100 nM | < 100 nM | < 100 nM | < 100 nM | < 100 nM | < 100 nM | < 100 nM | < 100 nM |  |  |  |  |  |  |  | 
12 | COc1cc(-c2ccc(-c3cc(C)c(N4CC[C@H](NC5CCC5)C4)nn3)c(O)c2)cnn1 [Compound 449, 2-{6-[(3S)-3-(cyclobutylamino)pyrrolidin-1-yl]-5-methylpyridazin-3-yl}-5-(6-methoxypyridazin-4-yl)phenol] | 1000 to 10000 nM | 100 to 1000 nM | 100 to 1000 nM | 100 to 1000 nM | 100 to 1000 nM | 100 to 1000 nM | 100 to 1000 nM | < 100 nM |  |  |  |  |  |  |  | 
13 | COc1cncc(-c2cc(O)c(-c3ccc(N4CC[C@H](NC5CCC5)C4)nn3)cc2F)c1 [Compound 224, 2-{6-[(3S)-3-(cyclobutylamino)pyrrolidin-1-yl]pyridazin-3-yl}-4-fluoro-5-(5-methoxypyridin-3-yl)phenol] | > 10000 nM | > 10000 nM | > 10000 nM | > 10000 nM | > 10000 nM | 1000 to 10000 nM | 1000 to 10000 nM | 1000 to 10000 nM |  |  |  |  |  |  |  | 
14 | Cc1nc2cc(O)c(-c3ccc(N4CC[C@H](N(C)C(C)(C)C)C4)nn3)cc2o1 [Compound 858] |  |  |  |  |  |  |  |  | 100 to 1000 nM | 100 to 1000 nM | 100 to 1000 nM | 100 to 1000 nM | < 100 nM | < 100 nM | < 100 nM | < 100 nM
15 | COc1cc(-c2ccc(-c3ccc(N4CCC(NC5CC(C)(C)C5)C4)nn3)c(O)c2)cnn1 (stereo not shown) [Compound 352, 2-(6-{3-[(3,3-dimethylcyclobutyl)amino]pyrrolidin-1-yl}pyridazin-3-yl)-5-(6-methoxypyridazin-4-yl)phenol] | 100 to 1000 nM | 1000 to 10000 nM | 100 to 1000 nM | 100 to 1000 nM | 100 to 1000 nM | 100 to 1000 nM | 100 to 1000 nM | 100 to 1000 nM |  |  |  |  |  |  |  | 
16 | COc1cc(-c2ccc(-c3ccc(N4CC[C@H](NC5(C)CCC5)C4)nn3)c(O)c2)cnn1 [Compound 289, (S)-5-(6-methoxypyridazin-4-yl)-2-(6-(3-((1-methylcyclobutyl)amino)pyrrolidin-1-yl)pyridazin-3-yl)phenol] | < 100 nM | 100 to 1000 nM | 100 to 1000 nM | 100 to 1000 nM | 100 to 1000 nM | < 100 nM | < 100 nM | < 100 nM |  |  |  |  |  |  |  | 
17 | CC1(C)CC(Oc2ccc(-c3cc(F)c(-c4cn[nH]c4)cc3O)nn2)CC(C)(C)N1 [Compound 361] | < 100 nM | < 100 nM | 100 to 1000 nM | 100 to 1000 nM | < 100 nM | < 100 nM | < 100 nM | < 100 nM |  |  |  |  |  |  |  | 
